From patent US4622337A, “2,2-dimethyl-3-(2-halovinyl)cyclopropane carboxlic acid ester pesticides” (priority 1972, dated 1986)

Key:
[1] = system: female flies (houseflies); test: Synergisability with Sesamex, 5 micrograms per fly 3 hours before; type: in vivo, Musca domestica; details: for LD50 Active compound (flies pretreated with synergist): 5 micrograms per fly Sesamex 3 hours before; for Approx. synergist factor: Sesamex, 5 micrograms per fly; for LD 50 active compound only: without synergist
Experimental: The following results were obtained
By repeating the above synergisability test but pretreating flies instead with 5 micrograms per fly of the synergist Sesamex 3 hours before applying the pyrethroid, the following results were obtained: […]

[2] = system: mustard beetles (Phaedon cochleariae Fab); test: Relative toxicity to mustard beetles, topical micro drop; type: in vivo; details: for Relative Toxicity, Mustard Beetles: 5-benzyl-3-furylmethyl (1R)-trans-chrysanthemate = 1000, inverse ratio of LD50, topical, 48 hours
Experimental: (§1) The toxicity of these new esters was tested by the procedure described in detail in our above mentioned application and the following results were obtained:
(§2) The insecticidal acitivity of the esters of the invention was assessed against houseflies and mustard beetles using the following techniques:
Acetone solutions of the test compound were applied ventrally to adult mustard beetles using a micro drop applicator. The treated insects were maintained for 48 hours after which time kill is assessed. Two replicates of 40 to 50 mustard beetles were used at each dose level and 3 to 4 dose levels were used for each compound. Again, LD50 values were calculated and relative toxicities were calculated for the inverse ratios of LD50 (see Elliott et al, J. Sci. Food Agric. 20, 561, (1969)).
(§3) Relative toxicities were calculated by comparison with 5-benzyl-3-furylmethyl(1R)-trans-chrysanthemate which is one of the most toxic chrysanthemate esters known to houseflies and mustard beetles, its toxicity being about 24 times that of allethrin to houseflies and 65 times that of allethrin to mustard beetles.

[3] = system: houseflies (Musca domestica); test: Relative toxicity to houseflies, topical drop on thorax; type: in vivo; details: for Relative Toxicity, Houseflies: 5-benzyl-3-furylmethyl (1R)-trans-chrysanthemate = 1000, inverse ratio of LD50, topical, female flies
Experimental: as §1, §2
(§4) Female flies were treated on the thorax with a one microliter drop of insecticide dissolved in acetone. Two replicates of 15 flies were used at each dose rate and 6 dose rates were used per compound under test. After treatment, the flies were maintained at a temperature of 20° C.±1° and kill was assessed 24 and 48 hours after treatment. LD50 values were calculated in micrograms of insecticide per fly and relative toxicities were calculated from the inverse ratios of the LD50 values. (see Sawicki et al, Bulletin of the World Health Organization, 35,893, (1966) and Sawicki et al, Entomologia and Exp. Appl. 10, 253, (1967)).
as §3

[4] = Mammalian toxicity in rats; details: rat, in vivo
[5] = Mammalian toxicity in mice; details: mouse, in vivo; oral acute
[6] = system: female flies (houseflies); test: Synergisability with sesamex, 2 μg per fly pretreatment; type: in vivo, Musca domestica; details: for LD 50 active compound + synergist: pretreated with 2 μg. per fly sesamex; for Approx. Synergistic factor: sesamex, 2 μg. per fly; for LD 50 active compound only: untreated flies
Experimental: as §4, with “values.” for “values. (see Sawicki et al, Bulletin of the World Health Organization, 35,893, (1966) and Sawicki et al, Entomologia and Exp. Appl. 10, 253, (1967)).”

[7] = system: American cockroach, Periplaneta americana L.; test: Toxicity relative to bioresmethrin against American cockroach; type: in vivo; details: for Relative Toxicity (American cockroach): Bioresmethrin = 100
female Musca domestica = test: Topical application of pyrethroids alone and with piperonyl butoxide or Tropital; type: in vivo; details: for LD 50 active compound only: alone; for LD50 Active compound + piperonyl butoxide (1:5): with piperonyl butoxide (1:5)
From the text: Topical application of pyrethroids alone and in combination with synergist gave the following LD50 results in micrograms with female Musca domestica: […]

[8] = system: houseflies (M. domestica); test: Insecticidal activity by spraying in a Kearns and March chamber; type: in vivo, Musca domestica; details: for LD50: compound alone, odourless kerosene spray
Experimental: The insecticidal activity of DP 870 against houseflies was tested by spraying M. domestica in a Kearns and March chamber with a solution of a compound in odourless kerosene, and LD50 values calculated. The activity of DP 870 synergised with piperonylbutoxide was also measured and the results compared with the LD50 value for compound P21H of Example 18.

[9] = system: Ephestia kuhniella and Venturia canescens; test: Selective toxicity to Ephestia compared to Venturia (LD50 ratio); type: in vivo; details: for Selectivity (ratio of toxicity to Ephestia compared to Venturia): ratio from relative toxicity (LD50)
From the text: Experiments to compare the relative toxicity (LD50) of compound P39E with certain related compounds have been carried out towards both Ephestia kuhniella and Venturia canescens so that the relative toxicity to the two species can be calculated. […]

[10] = system: Boophilus microplus, Biarra strain; test: Acaricidal activity: inhibition of egg laying of injected engorged female ticks; type: in vivo; details: Rhipicephalus microplus, 336 h, 14 days after injection, read-out: % Inhibition (egg laying ability)
From the text: Acaricidal activity has been measured by injecting solutions of test compound P39E into engorged female ticks, Boophilus microplus, Biarra strain and the ability of the female to lay eggs 14 days after injection determined. The results are exposed as a percent of inhibition of egg laying ability compared to untreated control ticks.

Question: Which “LD50 Active compound (flies pretreated with synergist)” value [1] does the source give for `CC1(C)C(C=C(Cl)Cl)C1C(=O)OC(C#N)c1cccc(Oc2ccccc2)c1` (racemic) [Compound P21P, (αRS)-cyano-3-phenoxybenzyl-(1RS)-cis-trans-3-(2,2-dichlorovinyl)-2,2-dimethyl cyclopropane carboxylate] here?
Answer: 0.00088 µg

Question: And the Approx. synergist factor [1]?
Answer: ~8.3

Question: And the “LD 50 active compound only” value [1]?
Answer: 0.0073 µg

Question: What about the “Relative Toxicity, Mustard Beetles” value [2] of the same compound?
Answer: ≥ 5000

Question: What about the “Relative Toxicity, Houseflies” value [3] of the same compound?
Answer: 1300

Question: With `CC1(C)[C@H](C=C(Cl)Cl)[C@H]1C(=O)OCc1cccc(Oc2ccccc2)c1` (relative stereo) as the compound, how does the LD50 ([4]; po) read?
Answer: > 300 mg/kg

Question: And the LD50 [5]?
Answer: > 300 mg/kg

Question: For `C#CCc1ccc(COC(=O)[C@@H]2[C@@H](C=C(Cl)Cl)C2(C)C)o1` (relative stereo), which LD50 ([4]; po) is on record?
Answer: 300 mg/kg

Question: And the LD50 [5]?
Answer: ~300 mg/kg

Question: With `CC1(C)[C@H](C=C(Cl)Cl)[C@H]1C(=O)OCc1coc(Cc2ccccc2)c1` (relative stereo) as the compound, how does the LD50 [5] read?
Answer: 100 mg/kg

Question: With `CC1(C)[C@H](C(=O)OCc2cccc(Oc3ccccc3)c2)[C@@H]1C=C(Cl)Cl` (relative stereo) [Compound P21G] as the compound, how does the “Relative Toxicity, Mustard Beetles” value [2] read?
Answer: 780

Question: And the “LD 50 active compound + synergist” value [6]?
Answer: 0.00037 μg. per female fly

Question: And the “Approx. Synergistic factor” value [6]?
Answer: ~22

Question: What about the “LD 50 active compound only” value [6] of the same compound?
Answer: 0.0083 μg. per female fly

Question: And the “Relative Toxicity, Houseflies” value [3]?
Answer: 680

Question: With `CC(C)=C[C@@H]1[C@@H](C(=O)OCc2coc(Cc3ccccc3)c2)C1(C)C` [Bioresmethrin, 5-benzyl-3-furylmethyl (1R)--trans-chrysanthemate, reference compound] as the compound, how does the LD50 ([4]; iv) read?
Answer: 340 mg/kg

Question: What about the LD50 ([4]; po) of the same compound?
Answer: > 8000 mg/kg

Question: What about the “toxicity, times that of allethrin, to mustard beetles” value ([2]; relative to allethrin) of the same compound?
Answer: ~65 times

Question: And the “LD50 (American cockroach)” value ([7]; in vivo)?
Answer: 2.5 μg/insect

Question: And the “Approx. Synergistic factor” value [6]?
Answer: ~9.4

Question: And the “toxicity, times that of allethrin, to houseflies” value ([3]; relative to allethrin)?
Answer: about 24 times

Question: Which “LD 50 active compound only” value (female Musca domestica) does the source give for `CC/C=C\[C@@H]1[C@@H](C(=O)OCc2coc(Cc3ccccc3)c2)C1(C)C` [Compound A] here?
Answer: 0.034 µg

Question: And the “LD50 Active compound + piperonyl butoxide (1:5)” value (female Musca domestica)?
Answer: 0.015 µg

Question: What about the LD50 ([4]; iv) of the same compound?
Answer: 120 mg/kg

Question: What about the LD50 ([4]; po) of the same compound?
Answer: 800 to 1000 mg/kg

Question: And the “Relative Toxicity, Mustard Beetles” value [2]?
Answer: 2000

Question: What about the “LD 50 active compound + synergist” value [6] of the same compound?
Answer: 0.00033 μg. per female fly

Question: What about the “Approx. Synergistic factor” value [6] of the same compound?
Answer: ~13

Question: And the “LD 50 active compound only” value [6]?
Answer: 0.0042 μg. per female fly

Question: What about the “Relative Toxicity, Houseflies” value [3] of the same compound?
Answer: 1700

Question: For `CC1(C)C(C=C(Cl)Cl)C1C(=O)OCc1cccc(Oc2ccccc2)c1` (centres unmarked) [Compound P21H], which “LD 50 active compound only” value (female Musca domestica) is on record?
Answer: 0.031 µg

Question: What about the “LD50 Active compound + Tropital (1:5)” value (female Musca domestica; with Tropital (1:5)) of the same compound?
Answer: 0.019 µg

Question: What about the “LD50 Active compound + piperonyl butoxide (1:5)” value (female Musca domestica) of the same compound?
Answer: 0.018 µg

Question: What about the “Relative Toxicity, Mustard Beetles” value [2] of the same compound?
Answer: 740

Question: What about the LD50 [8] of the same compound?
Answer: 0.022 μg/female

Question: And the “Relative Toxicity, Houseflies” value [3]?
Answer: 660

Question: With `CC1(C)[C@H](C(=O)OCc2cccc(Oc3ccccc3)c2)[C@@H]1C=C(Cl)Cl` [Compound P29L] as the compound, how does the “Relative Toxicity (American cockroach)” value [7] read?
Answer: 2,100

Question: And the “Selectivity (ratio of toxicity to Ephestia compared to Venturia)” value [9]?
Answer: 2.3

Question: With `CC1(C)[C@H](C=C(Cl)Cl)[C@H]1C(=O)OCc1cccc(Oc2ccccc2)c1` [Compound P29M, 3-Phenoxybenzyl-(1R)--trans-2,2-dimethyl-3-(2,2-dichlorovinyl)cyclopropanecarboxylate] as the compound, how does the “Relative Toxicity (American cockroach)” value [7] read?
Answer: 800

Question: What about the “Relative Toxicity, Houseflies” value [3] of the same compound?
Answer: 740

Question: What about the “Selectivity (ratio of toxicity to Ephestia compared to Venturia)” value [9] of the same compound?
Answer: 2.8

Question: Which “Relative Toxicity, Mustard Beetles” value [2] does the source give for `CC1(C)[C@H](C(=O)OC(C#N)c2cccc(C(=O)c3ccccc3)c2)[C@@H]1C=C(Br)Br` (stereo partly drawn) [Compound P39E, (αRS)-cyano-3-benzoylbenzyl(1R)cis-2,2-dimethyl-3-(2,2-dibromovinyl)-cyclopropane carboxylate] here?
Answer: 2200

Question: And the inhibition at 100 µg/mL ([10]; 0.1 mg/ml)?
Answer: 0%

Question: What about the inhibition at 1000 µg/mL ([10]; 1 mg/ml) of the same compound?
Answer: 90%

Question: What about the inhibition at 10000 µg/mL ([10]; 10 mg/ml) of the same compound?
Answer: 100%

Question: What about the “Relative Toxicity, Houseflies” value [3] of the same compound?
Answer: 330

Question: What about the selectivity in words ([9]; Ephestia over Venturia) of the same compound?
Answer: very marked and quite unexpected selectivity

Question: And the “Selectivity (ratio of toxicity to Ephestia compared to Venturia)” value [9]?
Answer: 7.9

Question: Which LD50 [8] does the source give for `CC1(C)[C@H](C=C(F)F)[C@H]1C(=O)OCN1C(=O)C2=C(CCCC2)C1=O` [DP 870] here?
Answer: 0.09 μg/female

Question: What about the “LD50, plus piperonyl-butoxide” value ([8]; plus piperonyl butoxide (1:5 w/w)) of the same compound?
Answer: 0.04 μg/female

Question: Which “LD50 Active compound (flies pretreated with synergist)” value [1] does the source give for `CC1(C)C(C=C(Br)Br)C1C(=O)OC(C#N)c1cccc(Oc2ccccc2)c1` [P29B (crystalline isomer), (αS)-cyano-3-phenoxybenzyl(1R)cis-2,2-dimethyl-3-(2,2-dibromovinyl)cyclopropane carboxylate] here?
Answer: 0.00023 µg

Question: What about the Approx. synergist factor [1] of the same compound?
Answer: ~7

Question: And the “LD 50 active compound only” value [1]?
Answer: 0.0016 µg

Question: What about the “Relative Toxicity, Mustard Beetles” value [2] of the same compound?
Answer: 14000

Question: And the “Relative Toxicity, Houseflies” value [3]?
Answer: 23000

Question: And the “Selectivity (ratio of toxicity to Ephestia compared to Venturia)” value [9]?
Answer: 3.6
